Test results: patent US12134622B1, “2-benzo-[3,4-b]pyridine-[b,g]indeno[1,2;3,4]fluoreno-[1,2-d]oxonine-5,11,16,21-tetraone as an antimicrobial compound” (KING FAISAL UNIVERSITY, priority 2023, dated 2024)

Key:
Pseudomonas aeruginosa = assay: Antimicrobial screening, agar dilution method; assay type: cell-based; settings: after 10, 20, 40 and 60 minutes at all dilutions 1:100, 1:200, 1:400, 1:800
Method: (§1) The antibacterial properties of the synthesized compound 2-benzo-[3,4-b]pyridine-[b,g]indeno[1′,2′:3,4]fluoreno-[1,2-d]oxonine-5,11,16,21-tetraone were studied by the method of agar dilution. Test solutions of each compound was prepared in concentration of 1% using dimethylformamide as a solvent then they are diluted in physiological solution to obtain the final experimental dilutions 1:100, 1:200, 1:400, 1:800. The effect of these substances are compared with furacillin in a controllable study. The testing microbes used were gram positive bacteria Staphylococcus aureus, gram negative bacteria Pseudomonas aeruginosa and Escherichia coli and Candida albicans fungus. The experiments used for this survey were meat-pentonlu agar (EPA) for cultivation of bacteria and Saburo environment for the fungus. Each experiment used 1 mL of test solution on each plate […]. Two drops of emulsified with microbes feel were added. All experimental samples were taken from the agar after 10, 20, 40, 60 minutes in the environment on the basis of Patrk planted. The bacteria were cultivated at a temperature of 37° C. for 1 day and the mushroom was kept in a thermostat for 2 hours at a temperature of 28° C. Then results were checked.

Escherichia coli = assay: Antimicrobial screening, agar dilution method; assay type: cell-based; settings: after 10, 20, 40 and 60 minutes at all dilutions 1:100, 1:200, 1:400, 1:800
Method: as §1

Staphylococcus aureus = assay: Antimicrobial screening, agar dilution method; assay type: cell-based; settings: after 10, 20, 40 and 60 minutes at all dilutions 1:100, 1:200, 1:400, 1:800
Method: as §1

Candida albicans = assay: Antimicrobial screening, agar dilution method; assay type: cell-based; settings: after 10, 20, 40 and 60 minutes at all dilutions 1:100, 1:200, 1:400, 1:800
Method: as §1

- melting point: 270 to 271 °C
Compound: O=C1Oc2ncccc2-c2c(c3c4ccccc4c(=O)c3c3c2c(=O)c2ccccc23)C(=O)c2ccccc21 [2-benzo-[3,4-b]pyridine-[b,g]indeno[1′,2′:3,4]fluoreno-[1,2-d]oxonine-5,11,16,21-tetraone]
- inhibition activity (Pseudomonas aeruginosa): highest inhibition activity
- inhibition activity (Escherichia coli): highest inhibition activity
- inhibition activity (Staphylococcus aureus): highest inhibition activity
- inhibition activity (Candida albicans): highest inhibition activity
